The supplement of paper PMC3974653
Where a name gives a salt, the structure may show the parent alone.

Assays:
[1] = tested on: MTT (mouse pheochromocytoma); assay: efficacy (maximal response) relative to doxorubicin = -100% and DMSO = 0%; higher = less inhibition of viability; conditions: (24 or 48 h)
[2] = tested on: MTT (mouse pheochromocytoma); assay: IC50 of cell viability (ATP content); AC50 where efficacy is positive; conditions: (24 or 48 h)

IC50 of cell viability [2] [µM] | Structure (SMILES) | efficacy [1] [%]
23.7 | OCCN1CCN(CC/C=C2/c3ccccc3Sc3ccc(C(F)(F)F)cc32)CC1 [cis-(Z)-FLUPENTHIXOL] | -85.6
2.66 | O=C(Nc1cccc(C(F)(F)F)c1)c1cc(Br)cc(Br)c1O [FLUOROSALAN] | -35.6
0.841 | CC(C)COC(=O)OCN1C(=O)CN(CCN2CC(=O)N(COC(=O)OCC(C)C)C(=O)C2)CC1=O [Sobuzoxane] | -56.1
0.64 | Cc1cc(/C=C\c2ccc3cc(N(C)C)ccc3[n+]2C)c(C)n1-c1ccccc1.Cc1cc(/C=C\c2ccc3cc(N(C)C)ccc3[n+]2C)c(C)n1-c1ccccc1.O=C([O-])c1cc2ccccc2c(Cc2c(O)c(C(=O)[O-])cc3ccccc23)c1O [Pyrvinium pamoate] | -33.3
18.8 | CCN1/C(=C/C=C/C=C/c2sc3ccccc3[n+]2CC)Sc2ccccc21 [DITHIAZANINE IODIDE] | -109
26.6 | O=C(Nc1ccc(Cl)cc1)Nc1ccc(Cl)c(Cl)c1 [Triclocarban] | -121
0.531 | CCCCCCCCCCCCCC[n+]1ccc(C)cc1 [MYRISTYL-GAMMA-PICOLINIUM CHLORIDE] | -39.7
4.22 | COc1ccc2cc3[n+](cc2c1OC)CCc1cc2c(cc1-3)OCO2 [Berberine chloride] | -53.9
1.68 | CCN(CC)C1=CC=C(C=C1)C(\C2=CC=CC=C2)=C3\C=C/C(/C=C3)=[N+](\CC)CC [Brilliant Green] | -108
11.9 | CCCOc1ccc2nc(NC(=O)OC)sc2c1 [Tioxidazole] | -55.6
9.44 | c1ccc2[nH]c(-c3cscn3)nc2c1 [Thiabendazole] | -40
9.44 | CC(C)(C)c1ccc(C(=O)CCCN2CCC(OC(c3ccccc3)c3ccccc3)CC2)cc1 [Ebastine] | -49.3
1.01 | COC(=O)Nc1nc2cc(Sc3ccccc3)ccc2[nH]1 [Fenbendazole] | -61.4
11.9 | F\C1=C\NC(=O)NC1=O [5-Fluorouracil] | -67.4
11.9 | CCOC(=O)c1c(N)sc2c1CCN(Cc1ccccc1)C2 [TINORIDINE HYDROCHLORIDE] | -45.5
21.1 | O=[N+]([O-])c1ccc(O)c2ncccc12 [Nitroxoline] | -85.8
10.6 | C[n+]1c2cc(N)ccc2cc2ccc(N)cc21.[Cl-] [ACRIFLAVINIUM HYDROCHLORIDE] | -50.3

Structure (SMILES) | IC50 of cell viability [2] [µM] | efficacy [1] [%]
[Na+].CCC(C1CCC(C)C(O1)C(C)C(O)C(C)C(=O)C(CC)C2OC\3(O[C@]4(CC[C@@](C)(O4)C5CC[C@@](O)(CC)C(C)O5)C(O)\C=C3)C(C)CC2C)C([O-])=O (stereo not given in full) [SALINOMYCIN, SODIUM] | 3.35 | -47.9
N#Cc1nn(-c2c(Cl)cc(C(F)(F)F)cc2Cl)c(N)c1[S+]([O-])C(F)(F)F (stereo not given) [FIPRONIL] | 23.7 | -88.6
C=C(C)[C@H]1Cc2c(ccc3c2O[C@@H]2COc4cc(OC)c(OC)cc4[C@@H]2C3=O)O1 [Rotenone] | 2.66 | -124
